Experiments:
[1] = molecular target: T1, wt human TYK2, catalytic site (Homo sapiens, UniProt P29597); assay: HTRF KinEASE assay, TYK2; format: biochemical; conditions: 1 μM ATP; read-out: IC50, Activity Toward TYK2
T1 construct: wt human TYK2, catalytic site; purchased SignalChem
T1 sequence (P29597 897-1176 limits assumed): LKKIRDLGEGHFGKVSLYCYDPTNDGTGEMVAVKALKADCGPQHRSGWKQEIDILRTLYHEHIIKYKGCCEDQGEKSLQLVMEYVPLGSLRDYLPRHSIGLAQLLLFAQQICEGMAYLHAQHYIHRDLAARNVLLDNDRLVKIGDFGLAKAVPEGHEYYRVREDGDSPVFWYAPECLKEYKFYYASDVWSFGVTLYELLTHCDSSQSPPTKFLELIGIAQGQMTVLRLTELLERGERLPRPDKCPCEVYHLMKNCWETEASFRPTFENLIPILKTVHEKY
Method in brief: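 HTRF KinEASE-TK readout with 1 μM biotinylated TK substrate in 1× kinase buffer, ≥30 min at room temperature, then antibody/streptavidin-XL665 detection for 60 min. TYK2 at 2 nM with 1 μM ATP; JAK2 at 1 nM with 100 μM ATP. Analysis uses emission ratios.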

[2] = molecular target: T2, wt human JAK1, catalytic site (Homo sapiens, UniProt P23458); assay: HTRF KinEASE assay, JAK1; format: biochemical; conditions: 2.5 μM ATP; read-out: IC50, Activity Toward JAK1
T2 construct: wt human JAK1, catalytic site; purchased ThermoFisher
T2 sequence (P23458 875-1153 limits assumed): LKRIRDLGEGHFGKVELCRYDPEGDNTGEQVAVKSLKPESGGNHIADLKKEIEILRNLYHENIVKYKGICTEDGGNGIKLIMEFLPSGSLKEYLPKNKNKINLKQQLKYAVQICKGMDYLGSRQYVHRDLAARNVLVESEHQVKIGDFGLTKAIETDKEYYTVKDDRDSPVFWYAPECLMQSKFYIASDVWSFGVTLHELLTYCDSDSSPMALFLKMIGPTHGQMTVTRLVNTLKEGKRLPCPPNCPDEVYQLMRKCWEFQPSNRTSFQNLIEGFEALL
Method in brief: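 Two-step HTRF KinEASE assay: compound, kinase/biotinylated TK substrate and ATP were incubated at least 30 min at room temperature. Antibody plus streptavidin-XL665 was then added and plates were read after 60 min. Inhibition was derived from emission ratios according to the kit protocol.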

[3] = molecular target: T3, wt human LRRK2, catalytic site (Homo sapiens, UniProt Q5S007); assay: TR-FRET LanthaScreen Eu Kinase Binding Assay, LRRK2 wt; conditions: one range stated for wt and G2019, read-out: IC50, Activity Toward LRRK2(Wt)
T3 construct: 5 nM wt human LRRK2, catalytic site; purchased ThermoFisher
T3 sequence (Q5S007 970-2527 limits assumed): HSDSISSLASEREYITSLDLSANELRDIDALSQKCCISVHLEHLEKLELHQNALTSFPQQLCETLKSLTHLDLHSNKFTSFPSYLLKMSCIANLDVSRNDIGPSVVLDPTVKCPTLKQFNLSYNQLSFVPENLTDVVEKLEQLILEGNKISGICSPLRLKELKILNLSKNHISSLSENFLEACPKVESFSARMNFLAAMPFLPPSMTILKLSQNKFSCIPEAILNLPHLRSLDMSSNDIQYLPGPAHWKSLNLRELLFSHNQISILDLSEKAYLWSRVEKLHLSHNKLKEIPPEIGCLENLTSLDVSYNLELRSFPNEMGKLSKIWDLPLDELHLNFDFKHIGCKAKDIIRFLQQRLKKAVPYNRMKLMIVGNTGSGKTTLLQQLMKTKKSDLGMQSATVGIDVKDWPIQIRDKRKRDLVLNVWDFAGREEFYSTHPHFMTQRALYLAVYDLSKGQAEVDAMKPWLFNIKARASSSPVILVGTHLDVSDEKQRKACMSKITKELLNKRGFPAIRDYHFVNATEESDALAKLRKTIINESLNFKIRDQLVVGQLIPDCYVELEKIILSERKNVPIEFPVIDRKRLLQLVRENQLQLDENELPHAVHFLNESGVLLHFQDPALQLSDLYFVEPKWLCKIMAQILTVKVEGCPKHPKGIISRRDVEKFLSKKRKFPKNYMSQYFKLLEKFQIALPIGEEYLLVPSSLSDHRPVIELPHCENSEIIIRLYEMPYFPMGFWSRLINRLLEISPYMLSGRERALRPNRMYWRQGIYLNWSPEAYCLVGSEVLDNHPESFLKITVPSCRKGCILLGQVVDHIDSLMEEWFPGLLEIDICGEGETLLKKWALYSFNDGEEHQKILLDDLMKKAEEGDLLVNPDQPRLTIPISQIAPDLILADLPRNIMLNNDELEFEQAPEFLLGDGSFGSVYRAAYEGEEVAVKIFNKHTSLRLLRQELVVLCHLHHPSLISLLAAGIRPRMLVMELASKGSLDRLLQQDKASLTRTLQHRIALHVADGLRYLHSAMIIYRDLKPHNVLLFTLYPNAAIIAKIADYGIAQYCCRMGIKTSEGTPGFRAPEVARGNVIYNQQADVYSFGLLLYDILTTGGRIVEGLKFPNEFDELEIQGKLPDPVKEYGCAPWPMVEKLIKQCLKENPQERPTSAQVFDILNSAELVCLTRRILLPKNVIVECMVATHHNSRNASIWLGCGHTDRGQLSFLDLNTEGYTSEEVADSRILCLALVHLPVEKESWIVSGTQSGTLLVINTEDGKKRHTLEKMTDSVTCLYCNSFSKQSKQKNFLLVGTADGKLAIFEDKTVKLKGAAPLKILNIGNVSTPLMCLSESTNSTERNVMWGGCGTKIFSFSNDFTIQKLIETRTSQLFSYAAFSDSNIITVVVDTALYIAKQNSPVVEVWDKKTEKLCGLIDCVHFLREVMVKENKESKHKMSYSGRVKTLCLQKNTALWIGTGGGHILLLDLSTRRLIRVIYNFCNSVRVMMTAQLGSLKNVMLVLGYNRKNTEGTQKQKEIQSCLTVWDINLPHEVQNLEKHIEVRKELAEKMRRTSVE
Protocol: (§1) The basic protocol for TR-FRET LanthaScreen Eu Kinase Binding Assay inhibitor studies were performed as follows. LanthaScreen Kinase Binding Assays (ThermoFisher/USA) to evaluate inhibitors were performed by addition of 5 μL of test compound in corresponding DMSO dilutions/5 μl of kinase/antibody mixture, 5 μL of tracer into 384 well small volume plates. After incubation for 1 hour at room temperature, plates were read. Data analysis of emission ratios was according LanthaScreen Eu Kinase Binding Assay protocol.
(§2) Kinase and assay components were adjusted to final concentrations according to kit protocol. For LRRK2: 5 nM wt human LRRK2, catalytic site, or G2019S human LRRK2, catalytic site (ThermoFisher/USA), 2 nM Eu-Anti-GST Antibody, 10 nM Kinase Tracer 236 in 1× Kinase Buffer A. For NUAK1: 8 nM wt human NUAK1, full length (ThermoFisher/USA), 2 nM Eu-Anti-His Antibody, 5 nM Kinase Tracer 236 in 1× Kinase Buffer A.

[4] = molecular target: T4, G2019S human LRRK2, catalytic site (Homo sapiens, UniProt Q5S007, G2019S); assay: TR-FRET LanthaScreen Eu Kinase Binding Assay, LRRK2 G2019S; conditions: LRRK2(G2019); one range stated for wt and G2019; read-out: IC50, Activity Toward LRRK2(G2019)
T4 construct: G2019S human LRRK2, catalytic site; purchased ThermoFisher
T4 sequence (Q5S007 970-2527 G2019S limits assumed): as the sequence (Q5S007 970-2527 limits assumed) above, with G1050S counted along it
Protocol: as §1, §2

| Structure (SMILES) | IC50 [1] | IC50 [2] | IC50 [3] | IC50 [4] |
| --- | --- | --- | --- | --- |
| NC(=O)c1nn(-c2c(F)cccc2F)cc1Nc1nc2ccccc2[nH]1 [compound 11, 4-((1H-benzo[d]imidazol-2-yl)amino)-1-(2,6-difluorophenyl)-1H-pyrazole-3-carboxamide] | 0.1 to 1 µM | 0.1 to 1 µM | 0.1 to 1 µM | 0.1 to 1 µM |
| NC(=O)c1nn(-c2c(Cl)cccc2Cl)cc1Nc1ccc(N2CCCS2(=O)=O)cc1 [compound 272, 1-(2,6-dichlorophenyl)-4-((4-(1,1-dioxidoisothiazolidin-2-yl)phenyl)amino)-1H-pyrazole-3-carboxamide] | 0.1 to 1 µM | 0.01 to 0.1 µM | 0.1 to 1 µM | 0.1 to 1 µM |
| Cc1cccnc1-c1ccc(Nc2cn(-c3c(Cl)cccc3Cl)nc2C(N)=O)cn1 [compound 395, 1-(2,6-dichlorophenyl)-4-((3′-methyl-[2,2′-bipyridin]-5-yl)amino)-1H-pyrazole-3-carboxamide] | 0.1 to 1 µM | 0.1 to 1 µM | 0.1 to 1 µM | 0.1 to 1 µM |
| NC(=O)c1nn(-c2c(Cl)cccc2Cl)cc1Nc1ccc(C(=O)N2CCC(F)C2)cc1 (stereo not shown) [compound 246, 1-(2,6-dichlorophenyl)-4-((4-(3-fluoropyrrolidine-1-carbonyl)phenyl)amino)-1H-pyrazole-3-carboxamide] | 0.01 to 0.1 µM | 0.01 to 0.1 µM | 0.1 to 1 µM | 0.1 to 1 µM |
| CN1CCC(N(C)C(=O)c2ccc(Nc3cn(-c4c(Cl)cccc4Cl)nc3C(N)=O)cc2)CC1 [compound 50, 1-(2,6-dichlorophenyl)-4-((4-(methyl(1-methylpiperidin-4-yl)carbamoyl)phenyl)amino)-1H-pyrazole-3-carboxamide] | 0.01 to 0.1 µM | 0.1 to 1 µM | 0.1 to 1 µM | 0.1 to 1 µM |
| Cc1cnnn1-c1ccc(Nc2cn(-c3c(Cl)cccc3Cl)nc2C(N)=O)cc1 [compound 391, 1-(2,6-dichlorophenyl)-4-((4-(5-methyl-1H-1,2,3-triazol-1-yl)phenyl)amino)-1H-pyrazole-3-carboxamide] | 0.01 to 0.1 µM | 0.01 to 0.1 µM | 0.1 to 1 µM | 0.1 to 1 µM |
| CCn1cc(C(F)(F)F)nc1-c1ccc(Nc2cn(-c3c(F)cccc3Cl)nc2C(N)=O)cc1 [compound 303, 1-(2-chloro-6-fluorophenyl)-4-((4-(1-ethyl-4-(trifluoromethyl)-1H-imidazol-2-yl)phenyl)amino)-1H-pyrazole-3-carboxamide] | 0.01 to 0.1 µM | 0.01 to 0.1 µM | 0.1 to 1 µM | 0.1 to 1 µM |
| Cc1ccnn1-c1ccc(Nc2cn(-c3c(F)cccc3Cl)nc2C(N)=O)cc1 [compound 233, 1-(2-chloro-6-fluorophenyl)-4-((4-(5-methyl-1H-pyrazol-1-yl)phenyl)amino)-1H-pyrazole-3-carboxamide] | 0.01 to 0.1 µM | 0.01 to 0.1 µM | 0.1 to 1 µM | 0.1 to 1 µM |
| NC(=O)c1nn(-c2c(Cl)cccc2Cl)cc1Nc1ccc(-c2nnc3n2CCCCC3)cc1 [compound 63, 1-(2,6-dichlorophenyl)-4-((4-(6,7,8,9-tetrahydro-5H-[1,2,4]triazolo[4,3-a]azepin-3-yl)phenyl)amino)-1H-pyrazole-3-carboxamide] | 0.01 to 0.1 µM | 0.1 to 1 µM | 0.01 to 0.1 µM | 0.01 to 0.1 µM |
| NC(=O)c1nn(-c2c(Cl)cccc2Cl)cc1Nc1ccc(-c2nccn2CC(F)(F)F)cc1 [compound 268, 1-(2,6-dichlorophenyl)-4-((4-(1-(2,2,2-trifluoroethyl)-1H-imidazol-2-yl)phenyl)amino)-1H-pyrazole-3-carboxamide] | 0.01 to 0.1 µM | 0.01 to 0.1 µM | 0.1 to 1 µM | 0.1 to 1 µM |
| CC(C)(C)NC(=O)c1ccc(Nc2cn(-c3c(Cl)cccc3Cl)nc2C(N)=O)cc1 [compound 26, 4-((4-(tert-butylcarbamoyl)phenyl)amino)-1-(2,6-dichlorophenyl)-1H-pyrazole-3-carboxamide] | 0.01 to 0.1 µM | 0.01 to 0.1 µM | 0.1 to 1 µM | 0.1 to 1 µM |
| CCc1cncnc1-c1ccc(Nc2cn(-c3c(Cl)cccc3Cl)nc2C(N)=O)cc1 [compound 52, 1-(2,6-dichlorophenyl)-4-((4-(5-ethylpyrimidin-4-yl)phenyl)amino)-1H-pyrazole-3-carboxamide] | 0.01 to 0.1 µM | 0.1 to 1 µM | 0.1 to 1 µM | 0.1 to 1 µM |

Results, then the molecule that gave them:

| IC50 [1] | IC50 [2] | IC50 [3] | IC50 [4] | Structure (SMILES) |
| --- | --- | --- | --- | --- |
| 0.01 to 0.1 µM | 0.1 to 1 µM | 0.1 to 1 µM | 0.1 to 1 µM | NC(=O)c1nn(-c2c(Cl)cccc2Cl)cc1Nc1ccc(C(=O)N2CC[C@H](F)C2)nc1 [compound 355, (S)-1-(2,6-dichlorophenyl)-4-((6-(3-fluoropyrrolidine-1-carbonyl)pyridin-3-yl)amino)-1H-pyrazole-3-carboxamide] |
| < 0.01 µM | 0.01 to 0.1 µM | 0.1 to 1 µM | 0.1 to 1 µM | N#CC1CN(C(=O)c2ccc(Nc3cn(-c4c(Cl)cccc4Cl)nc3C(N)=O)cc2)C1 [compound 276, 4-((4-(3-cyanoazetidine-1-carbonyl)phenyl)amino)-1-(2,6-dichlorophenyl)-1H-pyrazole-3-carboxamide] |
| 0.01 to 0.1 µM | < 0.01 µM | 0.1 to 1 µM | 0.1 to 1 µM | Cc1cncc2nnc(-c3ccc(Nc4cn(-c5c(Cl)cccc5Cl)nc4C(N)=O)cn3)n12 [compound 436, 1-(2,6-dichlorophenyl)-4-((6-(5-methyl-[1,2,4]triazolo[4,3-a]pyrazin-3-yl)pyridin-3-yl)amino)-1H-pyrazole-3-carboxamide] |
| < 0.01 µM | 0.01 to 0.1 µM | 0.1 to 1 µM | 0.1 to 1 µM | NC(=O)c1nn(-c2c(Cl)cccc2Cl)cc1Nc1ccc(C(=O)N2CC(O)C2)cc1 [compound 426, 1-(2,6-dichlorophenyl)-4-((4-(3-hydroxyazetidine-1-carbonyl)phenyl)amino)-1H-pyrazole-3-carboxamide] |
| < 0.01 µM | 0.01 to 0.1 µM | 0.1 to 1 µM | 0.1 to 1 µM | CC1(C)CN(C(=O)c2ccc(Nc3cn(-c4c(Cl)cccc4Cl)nc3C(N)=O)cc2)C1 [compound 456, 1-(2,6-dichlorophenyl)-4-((4-(3,3-dimethylazetidine-1-carbonyl)phenyl)amino)-1H-pyrazole-3-carboxamide] |
| 0.01 to 0.1 µM | 0.01 to 0.1 µM | 0.1 to 1 µM | 0.1 to 1 µM | Cc1ncnn1-c1ccc(Nc2cn(-c3c(Cl)cccc3Cl)nc2C(N)=O)cc1 [compound 326, 1-(2,6-dichlorophenyl)-4-((4-(5-methyl-1H-1,2,4-triazol-1-yl)phenyl)amino)-1H-pyrazole-3-carboxamide] |
| 0.1 to 1 µM | 0.01 to 0.1 µM | 0.1 to 1 µM | 0.1 to 1 µM | N#Cc1cccnc1-c1ccc(Nc2cn(-c3c(Cl)cccc3Cl)nc2C(N)=O)cc1 [compound 59, 4-((4-(3-cyanopyridin-2-yl)phenyl)amino)-1-(2,6-dichlorophenyl)-1H-pyrazole-3-carboxamide] |
| 0.01 to 0.1 µM | 0.01 to 0.1 µM | 0.1 to 1 µM | 0.1 to 1 µM | Cc1cccc2nnc(-c3ccc(Nc4cn(-c5c(Cl)cccc5Cl)nc4C(N)=O)cc3)n12 [compound 376, 1-(2,6-dichlorophenyl)-4-((4-(5-methyl-[1,2,4]triazolo[4,3-a]pyridin-3-yl)phenyl)amino)-1H-pyrazole-3-carboxamide] |
| 0.01 to 0.1 µM | 0.1 to 1 µM | 0.01 to 0.1 µM | 0.01 to 0.1 µM | CCn1cc(C(F)(F)F)nc1-c1ccc(Nc2cn(-c3c(F)cccc3F)nc2C(N)=O)cc1 [compound 304, 1-(2,6-difluorophenyl)-4-((4-(1-ethyl-4-(trifluoromethyl)-1H-imidazol-2-yl)phenyl)amino)-1H-pyrazole-3-carboxamide] |
| 0.1 to 1 µM | 0.1 to 1 µM | 0.1 to 1 µM | 0.1 to 1 µM | CC(C)(C)OC(=O)N1CCCC(NC(=O)c2ccc(Nc3cn(-c4c(F)cccc4Cl)nc3C(N)=O)cc2)C1 (stereo not shown) [compound 37, tert-butyl_3-(4-((3-carbamoyl-1-(2-chloro-6-fluorophenyl)-1H-pyrazol-4-yl)amino)benzamido)piperidine-1-carboxylate] |

Source: patent US20230373985A1 (Origenis Gmbh, priority 2020, published 2023)
